One compound from paper PMC9753513 (ACS Omega, 2022) can be followed below.

Each structure is given as a SMILES string.

The experiment has as its target T1, human dihydrofolate reductase (hDHFR) (Homo sapiens, UniProt P00374).
T1 sequence (P00374 1-187): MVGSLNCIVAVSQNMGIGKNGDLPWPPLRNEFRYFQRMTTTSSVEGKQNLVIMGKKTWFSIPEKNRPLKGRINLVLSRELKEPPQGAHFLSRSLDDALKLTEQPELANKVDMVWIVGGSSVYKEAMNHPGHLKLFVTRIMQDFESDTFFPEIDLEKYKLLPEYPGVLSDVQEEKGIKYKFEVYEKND
Nature of the experiment: hDHFR inhibition assay. It counts as biochemical.

In turn, `CN(C)c1ccc(C=NNC(=O)CSc2nc3sc4c(c3c(=O)n2-c2ccccc2)CCCCC4)cc1` [compound 23, N′-[4-(Dimethylamino)benzylidene]-2-[(4-oxo-3-phenyl-6,7,8,9-tetrahydro-3H-cyclohepta[4,5]thieno[2,3-d]pyrimidin-2-yl)thio]acetohydrazide] showed an IC50 of 280 nM.

What is called IC50 is the point on the concentration scale where inhibition reaches its midpoint. Read a high IC50 as a need for much substance.
